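The compound was tested at five concentrations on cells cultured in 96-well plates, with a 48-hour exposure period. The concentration for full growth arrest is given as TGI.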
Legend:
Test in all cases: NCI tumour cell line growth inhibition, 48 h
PC-3 prostate = system: PC-3 prostate
NCI/ADR-RES ovarian = system: NCI/ADR-RES ovarian
T-47D breast = system: T-47D breast
UACC-257 melanoma = system: UACC-257 melanoma
U251 CNS = system: U251 CNS
HCT-116 colon = system: HCT-116 colon
MCF7 breast = system: MCF7 breast
CCRF-CEM leukemia = system: CCRF-CEM leukemia
SK-MEL-28 melanoma = system: SK-MEL-28 melanoma
SNB-19 CNS = system: SNB-19 CNS
OVCAR-4 ovarian = system: OVCAR-4 ovarian
CAKI-1 renal = system: CAKI-1 renal
NCI-H226 lung = system: NCI-H226 lung
LOX IMVI melanoma = system: LOX IMVI melanoma
OVCAR-3 ovarian = system: OVCAR-3 ovarian
A498 renal = system: A498 renal

Row | Compound | TGI (PC-3 prostate) [µM] | TGI (NCI/ADR-RES ovarian) [µM] | TGI (T-47D breast) [µM] | TGI (UACC-257 melanoma) [µM] | TGI (U251 CNS) [µM] | TGI (HCT-116 colon) [µM] | TGI (MCF7 breast) [µM] | TGI (CCRF-CEM leukemia) [µM] | TGI (SK-MEL-28 melanoma) [µM] | TGI (SNB-19 CNS) [µM] | TGI (OVCAR-4 ovarian) [µM] | TGI (CAKI-1 renal) [µM] | TGI (NCI-H226 lung) [µM] | TGI (LOX IMVI melanoma) [µM] | TGI (OVCAR-3 ovarian) [µM] | TGI (A498 renal) [µM]
1 | Cc1ccc2c(c1)C(=O)c1ccc(C)nc1C2=O | > 100 | 67.3 | > 100 | 48.9 | > 100 | 42.1 | > 100 | > 100 | > 100 | 63.6 | 83.7 | > 100 | > 100 | 75.6 | > 100 | > 100
2 | COc1ccc(C(c2ccccc2)N2C(=O)CCC2C(=O)O)cc1OC (centres undefined) | > 100 | > 100 | > 100 | > 100 | > 100 | > 100 | > 100 | > 100 | > 100 | > 100 | > 100 | > 100 | > 100 | > 100 | > 100 | > 100
3 | CC(C)=CCc1c(O)c(CC=C(C)C)c2oc3c(c(=O)c2c1O)C(C=C(C)C)Oc1cc(O)ccc1-3 (centres undefined) | 14.4 | 38.4 | 15.4 | 26.9 | 16.7 | 13.2 | 17.5 | 7.68 | 21.5 | 24.2 | 23.3 | 19.4 | 49.8 | 16 | 14.8 | 29.8
4 | CCOC(=O)c1c(C)n(-c2ccc(C)cc2)c2c1cc(O)c1[nH]c3c(c12)CCCC3 | 52.3 | > 100 | > 100 | 56.7 | 34.8 | 92.6 | 65.6 | 7.64 | 33.1 | 67.5 | 51.3 | > 100 | 60 | 30.2 | 51.1 | 56.2
5 | C=CCSC1=N/C(=C\c2ccco2)C(=O)N1CC=C | > 100 | > 100 | > 100 | > 100 | > 100 | > 100 | > 100 | > 100 | > 100 | > 100 | > 100 | > 100 | > 100 | > 100 | > 100 | 94.1
6 | C[N+](C)(C)C(Cc1c[nH]c(=S)[nH]1)C(=O)O (centres undefined) | > 100 | > 100 | > 100 | > 100 | > 100 | > 100 | > 100 | > 100 | > 100 | > 100 | > 100 | > 100 | > 100 | > 100 | > 100 | > 100
7 | CCCNc1c(Cl)cc(Cl)c2[nH]c3ccccc3c(=O)c12 | > 100 | > 100 | > 100 | > 100 | > 100 | > 100 | > 100 | > 100 | > 100 | 65.7 | > 100 | > 100 | > 100 | > 100 | > 100 | > 100
8 | CC(C)Cn1cnnc1NS(=O)(=O)c1cc(C(=O)NN)c(Cl)cc1S | > 10 | > 10 | > 10 | > 10 | > 10 | > 10 | > 10 | > 10 | > 10 | > 10 | > 10 | > 10 | > 10 | > 10 | > 10 | > 10
9 | O=C(c1no[n+]([O-])c1C(=O)c1csc2ccccc12)c1csc2ccccc12 | 8.33 | 56.3 | 13.7 | 16.3 | 22.7 | 25.9 | 25 | 0.267 | 11 | 32.3 | 7.3 | 2.23 | 35 | 5.37 | 3.78 | 29.3
10 | Cc1cc2c(cc1-c1cc3c(cc1C)C(C(C)C)=C(O)C(=O)/C3=C\Nc1cccc3c(N)cccc13)/C(=C/Nc1cccc3c(N)cccc13)C(=O)C(O)=C2C(C)C | > 100 | > 100 | > 100 | > 100 | > 100 | > 100 | > 100 | > 100 | > 100 | > 100 | > 100 | > 100 | > 100 | > 100 | > 100 | > 100
11 | O=Cc1cc(O)ccc1Br | > 78.4 | > 76.2 | > 100 | > 91.1 | 41.3 | 47.8 | > 100 | 15.5 | > 100 | > 100 | > 65.7 | 48.1 | > 91.7 | 33.4 | > 91.8 | > 100
12 | Nc1nc(Cl)cc(NCC2(CO)CC(O)C2)n1 (centres undefined) | > 100 | > 100 | > 100 | > 100 | > 100 | > 100 | > 100 | > 100 | > 100 | > 100 | > 100 | > 100 | > 100 | > 100 | > 100 | > 100
13 | O=C(CCl)Nc1ccc(-c2nc3ccccc3s2)cc1 | 6.71 | > 56.2 | 5.59 | 11.6 | 3.15 | 5.81 | 2.39 | > 36.7 | 9.66 | 9.99 | 15.2 | 3.38 | 5.11 | 2.31 | 3.61 | 11.7
14 | Nc1nc(Cl)c(N)c(NCC2(CO)CC(O)C2)n1 (centres undefined) | > 100 | > 100 | > 100 | > 100 | > 100 | > 100 | > 100 | > 100 | > 100 | > 100 | > 100 | > 100 | > 100 | > 100 | > 100 | > 100
15 | COc1cc([C@@H]2c3cc4c(cc3[C@@H](N=Cc3ccc(C(=O)O[C@H]5C[C@H]6OC[C@@]6(OC(C)=O)[C@H]6[C@H](OC(=O)c7ccccc7)[C@]7(O)C[C@H](OC(=O)[C@H](OC(=O)c8ccc(C=N[C@@H]9c%10cc%11c(cc%10[C@@H](c%10cc(OC)c(O)c(OC)c%10)[C@H]%10C(=O)OC[C@@H]%109)OCO%11)cc8)[C@@H](NC(=O)c8ccccc8)c8ccccc8)C(C)=C([C@@H](OC(C)=O)C(=O)[C@]56C)C7(C)C)cc3)C3COC(=O)C32)OCO4)cc(C)c1O (some centres undefined) | > 27.5 | > 50 | > 50 | > 50 | > 31.6 | > 50 | 48.5 | > 50 | > 50 | > 50 | > 50 | > 50 | > 50 | > 50 | > 31.9 | 29.2
16 | c1cc(-c2ccc(Oc3ccc(-c4ccncc4)cc3)cc2)ccn1 | > 100 | > 90.9 | > 100 | > 68.3 | > 48.8 | > 100 | > 100 | > 47.3 | > 95.1 | > 100 | > 100 | > 27.1 | > 100 | > 100 | > 61.8 | > 69.7
17 | CCCCC[C@H]1CC=CC(=O)O1 | 69.3 | 27.1 | 30.9 | 32.6 | 20.8 | 12.9 | 19.6 | 40.6 | 20.5 | 28.2 | 27.3 | 10.4 | 23.9 | 18.1 | 21.9 | 9.03
18 | COc1ccc(/C=N/Nc2nc3ccccc3c(=O)n2-c2ccccc2)cc1 | > 100 | > 100 | > 100 | > 100 | > 100 | > 100 | 40.5 | > 100 | > 100 | > 100 | > 100 | > 100 | > 100 | > 100 | > 100 | > 100
19 | O=C1C(c2c(O)n(-c3ccccc3)c3ccccc23)=Nc2ccccc21 | 80.9 | > 100 | 71.9 | > 100 | > 100 | > 100 | 37 | > 100 | > 100 | > 100 | > 100 | > 100 | 70 | > 100 | > 100 | 75.7

Reference: PubChem BioAssay (NCI)
